Laboratory results as given in publication PMC12032720, “Pharmacological assessment of the extract and a novel compound of Bacillus velezensis DM derived from the rhizosphere of Datura metel L. with microbial molecular screening” (BMC Complementary Medicine and Therapies, 2025).
≈ marks a conversion by molar mass, not a printed value. Where “and” joins values, the source holds several entries; their conditions need not be identical. Equal entries are not always repeated. Where two headings read alike, the source gives them in different places.

How the values were obtained:
THLE-2 normal cell line = test: Cytotoxicity on normal epithelial cells THLE-2 (selectivity index); assay type: cell-based; conditions: for IC50: Homo sapiens, THLE-2, normal cell line, mean ± SD; for SI (selectivity index): THLE-2 versus HCT-116
Experimental: (§1) Diverse human cancer cell lines: liver cancer cells (HepG2), colon cancer cell line (HCT-116), and breast cancer cell line (MCF-7) were brought from VACSERA Tissue Culture Unit (Giza, Egypt). RPMI-1640 media enhanced with 10% fetal bovine serum and […] gentamycin were employed to culture the cells. The cells were incubated at 37 °C with 5% CO2. To determine the cytotoxic activity, cells were treated with various doses (0–100 µg/ mL) of B. velezensis DM extract or Doxorubicin, and their viability compared to untreated controls was assessed. Compound (1) cytotoxic potential was evaluated against HCT-116 as well as normal epithelial cells (THLE2) to calculate the selectivity index (SI) as formerly depicted.
(§2) IC50 was calculated by the Graph Pad Prism (version 8, San Diego, CA, USA) (n = 3 replicates). Data are presented as mean ± SD.

HCT-116 = test: MTT cytotoxicity on colon cancer cell line HCT-116; assay type: cell-based; conditions: Homo sapiens, mean ± SD
Experimental: as §1, §2

Antioxidant ABTS assay = conditions: mean ± SD
Experimental: Antioxidant ABTS assay: the capacity of B. velezensis DM extract to scavenge ABTS radical cations was assessed compared to Quercetin at a range of concentrations, including 300, 150, 75, 25, and 10 µg/ mL [38].
as §2

Antioxidant DPPH assay = conditions: mean ± SD
Experimental: Antioxidant DPPH assay: To inspect the antioxidant potential of B. velezensis DM extract, a methodology reported by Nahar et al. was used compared to Trolox. IC50 was calculated by the Graph Pad Prism (version 8, San Diego, CA, USA) (n = 3 replicates). Data are presented as mean ± SD.

[1] = compound (1) experiment, read-out: IC50 HCT-116 (Table 4)

ABTS (IC50) (Antioxidant ABTS assay) [µg/mL]	DPPH (IC50) (Antioxidant DPPH assay) [µg/mL]	Compound	IC50 (THLE-2 normal cell line) [µg/mL]	SI (selectivity index) (THLE-2 normal cell line)	IC50 (HCT-116; [1]) [µg/mL]	IC50 (HCT-116; MTT, 0–100 µg/mL, n = 3, read-out: IC50 HCT-116 (Table 3)) [µg/mL]
		CNC=C(CC(O)C(O)CO)NC (stereo not drawn) [Compound (1), 5,6-di(methylamino)hex-5-ene-1,2,3-triol]	68.7 ± 3.34 (≈ 361 µM)	2.5 and 2.54	27 ± 1.85 (≈ 142 µM)	
		COc1cccc2c1C(=O)c1c(O)c3c(c(O)c1C2=O)C[C@@](O)(C(=O)CO)C[C@@H]3O[C@H]1C[C@H](N)[C@H](O)[C@H](C)O1 [Doxorubicin (DOX), Doxorubicin]	17.4 ± 1.25 (≈ 32.1 µM)	1.49	11.7 ± 0.4 (≈ 21.5 µM)	4.82 ± 0.18 (≈ 8.87 µM)
42.13 ± 1.92		O=c1c(O)c(-c2ccc(O)c(O)c2)oc2cc(O)cc(O)c12 [Quercetin]				
	113.31 ± 4.2	Cc1c(C)c2c(c(C)c1O)CCC(C)(C(=O)O)O2 (stereo not drawn) [Trolox]				
